From patent US20250319213A1, “FUNCTIONALIZED BISAMINOTHIOL DERIVATIVES, COMPLEXES WITH THESE BISAMINOTHIOL DERIVATIVES AND USE OF SAID COMPLEXES AS DIAGNOSTICS AND THERAPEUTICS” (ABX ADVANCED BIOCHEMICAL COMPOUNDS – BIOMEDIZINISCHE …, priority 2022, published 2025)

Key:
PSMA [1] = molecular target: T1, PSMA (Homo sapiens, UniProt Q04609); assay: Direct binding affinity on LNCaP cells (saturation); settings: [99mTc]TcO complex of the listed compound, saturation 0.3-40 nM, 1 h 37° C., mean ± SEM, read-out: Kd [nM] of [99mTc]TcO-complexes
T1 construct: host or cells: LNCaP human prostate carcinoma cells
Protocol: (§1) Competition, saturation and internalization assays were assessed using the high PSMA expressing human prostate carcinoma cell line LNCaP (ATCC® CRL-1740). The cells were grown as monolayer at 37° C. in a humidified atmosphere comprising 5% CO2 and 95% air in RPMI medium including 10% FCS (Merck KGAA, Germany). After washing the confluent cells twice with phosphate buffered saline (PBS) and detaching them with trypsin/EDTA (0.05%/0.02%), the cells were suspended in medium and counted (Casy TT, Omni Life Science, Germany).
For saturation monolayer of LNCaP cells were seeded, 5×10^4 cells/well in 48-well plates two days before the assay. On the day of saturation, after aspirating the medium, 160 μL of medium (for ^99mTc-labeled radioligand with D-mannitol (1 mg/mL)) were pipetted per well, for non-specific binding samples including 100 μM 2-PMPA. After preincubation for 5 min, 40 μL activity ([^68Ga]Ga-PSMA-11 or ^99mTc-labeled radioligand solution) were added (total volume/well: 200 μL). Eight concentrations ranged between 0.3 and 40 nM.
(§2) After 1 hour of incubation at 37° C. both for competition and saturation samples, the supernatants were aspirated and the cells washed twice with cold PBS. The cell lawn was lysed with 500 μL NaOH/SDS (0.1 M/1%) by shaking for 3 to 5 minutes. After transferring the lysates into measuring tubes, the activity of the samples was measured in a gamma counter (2480 Automatic Gamma Counter Wizard 2, Perkin Elmer, USA).
(§3) The half maximal inhibitory concentrations (IC50) and the dissociations constants (Kd) were calculated by fitting the data using a nonlinear curve-fitting program (GraphPad Prism 9). With the Kd value of [^68Ga]Ga-PSMA-11 on LNCaP and the known concentration of [^68Ga]Ga-PSMA-11 in the competition assay the inhibition constants (Ki) was also determined with the curve-fitting program.

PSMA [2] = molecular target: T1, PSMA; assay: Competitive binding affinity on LNCaP cells against [68Ga]Ga-PSMA-11 (competition); settings: natRe complex of the listed compound, 1 nM [68Ga]Ga-PSMA-11, 1 h 37° C., mean ± SEM
Protocol: as §1
For competition monolayer of LNCaP cells were seeded, 1×10^5 cells/well in 24-well plates two days before the assay. On the day of competition, after aspirating the medium, 100 μL of PBS and, for competition 100 μL of different concentrations of the test compound in PBS (10^−12 to 10^−6 M) were pipetted into the wells, simultaneously to 400 μL of medium including 1 nM of [^68Ga]Ga-PSMA-11.
as §2, §3

[3] = system: subcutaneous LNCaP tumor xenografts; assay: SPECT/CT and PET/CT imaging in LNCaP tumor bearing mice; format: in vivo; settings: LNCaP xenograft model
Protocol: A prostate cancer xenograft model was generated via subcutaneous injection of human LNCaP cells into the right shoulder of 8-12 week-old male nude mice (Rj:NMRI-Foxn1^nu/nu, Janvier Labs, Le Genest-Saint-Isle, France). Imaging studies were performed when tumors reached a diameter of >6 mm. General anesthesia was induced and maintained with inhalation of 10% (v/v) desflurane in […] oxygen/air. During anesthesia, animals were continuously warmed at 37° C.
Small animal single-photon emission computed tomography (SPECT) was performed using the nanoSPECT/CT scanner (Mediso Medical Imaging Systems) equipped with an APT63 aperture consisting of four M3 multi-pinhole collimators. Each animal received 30 MBq of ^99mTc-labeled compounds delivered in 0.2 mL of Dulbecco's phosphate-buffered saline as a single intravenous injection through a tail vein catheter. Photon emission was recorded using frame times of 60 s (1 h scan: 40-70 min), 90 s (4 h scan, 3.5-4.5 h), and 320 s (20 h scan, 18.5-21.5 h), and binned simultaneously within the 20% energy window of the 140.5 keV photopeak. With each SPECT scan, a corresponding CT image was recorded and used for anatomical referencing and attenuation correction. SPECT images were reconstructed using the Tera-Tomo™ three-dimensional (3D) algorithm at normal range with a voxel size of 0.4 mm and applying corrections for scatter attenuation, and decay.
Small animal positron emission tomography (PET) was performed using the nanoPET/CT scanner (Mediso Medical Imaging Systems). Each animal received 10 MBq of the radiolabeled reference compound [^68Ga]Ga-PSMA-11 delivered in Dulbecco's phosphate-buffered saline as a single intravenous injection through a tail vein catheter. Emission of the 511 keV annihilation photons was recorded continuously at a coincidence mode of 1:5 for 60 min following radiotracer injection. With each PET scan, a corresponding CT image was recorded and used for anatomical referencing and attenuation correction. Three-dimensional list mode data were binned using the 400-600 keV energy window. PET images of the 40-60 min time frame were reconstructed using the Tera-Tomo™ three-dimensional (3D) algorithm with a voxel size of 0.4 mm and applying corrections for random events, scatter, attenuation, and decay.
Three-dimensional VOIs were created applying fixed threshold for delineation of tumor (30%), muscle (0%); and kidneys (39%). Standardized uptake values (SUV=[MBq detected activity/mL tissue]/[MBq injected activity/g body weight], mL/g) were determined and reported as max SUV (VOI-maximum). Time-activity curves were generated and further analyzed using Prism (GraphPad Software, San Diego CA, USA).

[4] = Determination of log D values (shake-flask, octanol/medium); format: physicochemical; settings: for LogD (shake-flask, octanol/medium) Na-phosphate pH 7.4: 4.4 mM Na2HPO4, 2.2 mM NaH2PO4, pH 7.4
Protocol: Log D values were determined for different media by the shake-flask method (Andrés, A.; Rosés, M.; Ràfols, C.; Bosch, E.; Espinosa, S.; Segarra, V.; Huerta, J. M. Setup and validation of shake-flask procedures for the determination of partition coefficients (log D) from low drug amounts. Eur. J. Pharm. Sci. 2015, 76, 181-191.). In preparation, octanol was saturated with each of the used buffer solutions and vice versa. To 3 mL of octanol, together with 3 mL of buffer solution 200-300 μL of the ^99mTc-labeled radioligand (15-25 MBq, samples in triplicate) were added and shaken vigorously for 30 min. After centrifugation at 9,000 rpm for 15 min, samples were taken from both separated phases and measured by gamma-counter. Log D values were calculated as the ratio of radioactivity determined in octanol and aqueous phase.

[5] = Product stability in mouse plasma (in vitro); format: in vitro ADME; settings: mean ± SD (n = 3-4), normalized to fraction immediately after preparation
Protocol: (§4) In brief, the freshly produced ^99mTc-labeled radioligand solution (10-20 MBq, 20-100 μL) was added to the respective medium (200-400 μL), vortexed quickly, and shook gently at the respective temperature mentioned below. At certain time points, samples were taken, diluted, and measured by radio-RP-HPLC. Hereby, investigation of plasma samples included protein precipitation with the 4-fold volume of an ice-cold mixture of methanol/water (4/1, v/v), intensive shaking (5 min) and centrifugation (14,000 rpm, 10 min), before inspection of the supernatant. In addition, the recovery of extracted activity was calculated after activity measurement of supernatant and residue by a gamma counter.

[6] = Product stability in DPBS at 25° C.; format: physicochemical; settings: DPBS (+Ca2+, +Mg2+), mean ± SD, normalized to fraction immediately after preparation
Protocol: as §4

[7] = Product stability at room temperature (without addition of any media); format: physicochemical; settings: no media, radio-RP-HPLC
Protocol: as §4

LNCaP cells = assay: Determination of the internalization (surface binding and internalized activity); format: cell-based, human; settings: 1 h
Protocol: as §1
For internalization LNCaP and PC3 cells were seeded, 1×10^5 cells/well in 24-well plates two days before the assay. On the day of internalization, after aspirating the medium, 100 μL of PBS and, for non-specific binding samples, 100 μL 2-PMPA (100 μM) were pipetted into the wells, followed by 400 μL medium including activity. The concentration of the ^99mTc-labeled radioligands was 25 nM. After 1 h of incubation at 37° C. and adjacent well plates at 4° C., the supernatant was removed and the cells washed with cold PBS. Surface-bound activity was stripped with 4° C. cold acid-wash buffer (0.2 M glycine, pH 2.8) for 5 min. The acid wash buffer was transferred from the plate wells to measuring tubes, as was the PBS buffer after washing once (binding on the surface). Cytosolic activity was determined after treatment with cell lysis buffer (0.1 M NaOH/1% SDS). Cell surface and cytosolic activity were measured separately in a gamma counter. Determination of protein content from cell lysate was performed using a spectrophotometer (NanoDrop, Thermo Fisher Scientific, USA) at an absorbance of 280 nm.

[8] = as early as 1 hour after injection

T1 sequence (Q04609 whole entry): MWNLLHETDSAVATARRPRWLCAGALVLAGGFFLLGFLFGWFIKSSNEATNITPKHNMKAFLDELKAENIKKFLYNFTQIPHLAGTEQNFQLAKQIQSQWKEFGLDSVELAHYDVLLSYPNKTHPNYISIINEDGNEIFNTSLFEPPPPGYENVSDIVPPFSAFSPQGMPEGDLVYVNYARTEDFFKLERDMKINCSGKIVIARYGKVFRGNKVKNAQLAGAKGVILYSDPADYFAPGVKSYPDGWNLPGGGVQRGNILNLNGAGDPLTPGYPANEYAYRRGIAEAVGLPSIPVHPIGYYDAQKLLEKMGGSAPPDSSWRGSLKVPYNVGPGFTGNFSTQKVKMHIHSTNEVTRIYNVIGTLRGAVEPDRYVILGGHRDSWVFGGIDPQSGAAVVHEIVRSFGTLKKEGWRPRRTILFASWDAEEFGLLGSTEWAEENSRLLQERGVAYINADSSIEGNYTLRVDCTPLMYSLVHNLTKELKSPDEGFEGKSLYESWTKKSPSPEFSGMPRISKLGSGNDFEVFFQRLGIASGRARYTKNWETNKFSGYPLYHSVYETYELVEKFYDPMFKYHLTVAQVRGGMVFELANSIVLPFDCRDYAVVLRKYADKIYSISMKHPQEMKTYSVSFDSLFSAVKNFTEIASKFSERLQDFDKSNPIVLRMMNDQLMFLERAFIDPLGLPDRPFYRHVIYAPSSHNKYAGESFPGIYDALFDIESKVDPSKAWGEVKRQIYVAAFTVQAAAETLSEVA

Question: With `CC(C)(S)CNCCN(CCCCC(=O)N[C@@H](Cc1ccccc1)C(=O)N[C@@H](Cc1ccccc1)C(=O)N[C@@H](CCCCNC(=O)CCCCCCC(=O)NCCCC[C@H](NC(=O)N[C@@H](CCC(=O)O)C(=O)O)C(=O)O)C(=O)O)CC(C)(C)S` [Compound 1] as the compound, how does the Kd (PSMA [1]) read?
Answer: 15.5 ± 3.2 nM

Question: What about the Ki (PSMA [2]) of the same compound?
Answer: 4.8 ± 3.4 nM

Question: Which Kd (PSMA [1]) does the source give for `CC(C)(S)CNCCN(CCCCC(=O)N[C@@H](CCCCNC(=O)CCCCCCC(=O)NCCCC[C@H](NC(=O)N[C@@H](CCC(=O)O)C(=O)O)C(=O)O)C(=O)O)CC(C)(C)S` [Compound 3] here?
Answer: 15.8 ± 9.1 nM

Question: What about the Ki (PSMA [2]) of the same compound?
Answer: 7.3 ± 1.6 nM

Question: For `CC(C)(S)CNCCN(CCCCC(=O)N[C@@H](CCC(=O)O)C(=O)N[C@@H](CCC(=O)O)C(=O)N[C@H](CCCCNC(=O)CCCCCCC(=O)NCCCC[C@H](NC(=O)N[C@@H](CCC(=O)O)C(=O)O)C(=O)O)C(=O)O)CC(C)(C)S` [Compound 5], which “pharmacokinetic properties and organ distribution compared to the prior art” value [3] is on record?
Answer: faster pharmacokinetic properties and a more favorable organ distribution

Question: What about the tumor-to-kidney ratio [3, 8] of the same compound?
Answer: High

Question: And the tumor-to-muscle ratio [3, 8]?
Answer: High

Question: And the Kd (PSMA [1])?
Answer: 7.2 ± 1.7 nM

Question: What about the Ki (PSMA [2]) of the same compound?
Answer: 9.3 ± 0.9 nM

Question: Which “LogD (shake-flask, octanol/medium) Na-phosphate pH 7.4” value [4] does the source give for `CC1(C)CN(CCCCC(=O)N[C@@H](Cc2ccccc2)C(=O)N[C@@H](Cc2ccccc2)C(=O)N[C@H](CCCCNC(=O)CCCCCCC(=O)NCCCC[C@H](NC(=O)N[C@@H](CCC(=O)O)C(=O)O)C(=O)O)C(=O)O)CC[N]2CC(C)(C)[S][99Tc]2(=[O])[S]1` (stereo partly shown) [[^99mTc]TcO-2] here?
Answer: −2.08 ± 0.01

Question: And the “LogD (shake-flask, octanol/medium) PBS 0.1M pH 7.4” value [4]?
Answer: −2.16 ± 0.03

Question: What about the “LogD (shake-flask, octanol/medium) TRIS buffer 0.1M pH 7.4” value [4] of the same compound?
Answer: −2.16 ± 0.02

Question: And the “Fraction of radioligand after 6 h in mouse plasma at 37° C.” value [5]?
Answer: 98.3 ± 1.1%

Question: And the “Fraction of radioligand in DPBS at 25° C., 1 h” value [6]?
Answer: 89.9 ± 2.3%

Question: And the “Fraction of radioligand in DPBS at 25° C., 2 h” value [6]?
Answer: 97.7 ± 2.3%

Question: And the “Fraction of radioligand in DPBS at 25° C., 4 h” value [6]?
Answer: 80.7 ± 12.0%

Question: What about the “Fraction of radioligand in DPBS at 25° C., 20 h” value [6] of the same compound?
Answer: 89.2 ± 2.7%

Question: Which results are given for `CC1(C)CN(CCCCC(=O)N[C@@H](CCCCNC(=O)CCCCCCC(=O)NCCCC[C@H](NC(=O)N[C@@H](CCC(=O)O)C(=O)O)C(=O)O)C(=O)O)CC[N]2CC(C)(C)[S][99Tc]2(=[O])[S]1` (stereo partly shown) [[^99mTc]TcO-3]?
Answer: LogD (shake-flask, octanol/medium) Na-phosphate pH 7.4 [4]: −1.93 ± 0.01; LogD (shake-flask, octanol/medium) PBS 0.1M pH 7.4 [4]: −2.07 ± 0.01; LogD (shake-flask, octanol/medium) TRIS buffer 0.1M pH 7.4 [4]: −2.08 ± 0.02; Fraction of radioligand after 6 h in mouse plasma at 37° C. [5]: 98.5 ± 0.8%; Fraction of radioligand at indicated time point after preparation, 0 h ([7]; 0 h): 96%; Fraction of radioligand at indicated time point after preparation, 2 h ([7]; 2 h): 93%; Fraction of radioligand at indicated time point after preparation, 4 h ([7]; 4 h): 92%; Fraction of radioligand at indicated time point after preparation, 6 h ([7]; 6 h): 91%; Fraction of radioligand in DPBS at 25° C., 1 h [6]: 98.2 ± 1.9%; Fraction of radioligand in DPBS at 25° C., 2 h [6]: 97.3 ± 3.6%; Fraction of radioligand in DPBS at 25° C., 4 h [6]: 98.4 ± 1.0%; Fraction of radioligand in DPBS at 25° C., 20 h [6]: 89.1 ± 7.4%; % Internalization, 37° C. (LNCaP cells; 37° C.): 35.8%; Internalization, 4° C. (% AD/mg Protein) (LNCaP cells; cytosolic activity, 25 nM radioligand, 4° C., mean ± SEM): 0.7 ± 0.2 % AD/mg Protein; Internalization, 37° C. (% AD/mg Protein) (LNCaP cells; cytosolic activity, 25 nM radioligand, 37° C., mean ± SEM): 1.0 ± 0.3 % AD/mg Protein; Binding, 4° C. (% AD/mg Protein) (LNCaP cells; surface-bound activity, 25 nM radioligand, 4° C., mean ± SEM): 2.1 ± 1.2 % AD/mg Protein; Binding, 37° C. (% AD/mg Protein) (LNCaP cells; surface-bound activity, 25 nM radioligand, 37° C., mean ± SEM): 1.8 ± 0.3 % AD/mg Protein
